Data from patent publication US20020025918A1, “Methods of using helical peptides in plants” (priority 1987, published 2002).
In brackets after ≈: the same amount, converted by molar mass. Read-outs that look alike come from different tables or passages of the source. Residues, ends and D or L forms follow the SMILES beside them.

Assays:
[1] = system: E. coli; assay: MBC and MIC susceptibility test; format: cell-based
[2] = system: P. aeruginosa; assay: MBC and MIC susceptibility test; format: cell-based
[3] = system: S. aureus; assay: MBC and MIC susceptibility test; format: cell-based
[4] = system: B-16 myeloma cells; assay: B-16 cell viability, trypan blue exclusion; format: cell-based; details: for % Cell Viability: 100 μM peptide, one hour
Description: (§1) B-16 myeloma cells and normal 3T3 […] fibroblasts were either permitted to attach to the test plate, or treated with trypsin to free the cells from the plastic dish prior to treatment. Cells were then treated with 100 μM lytic peptide for one hour as described above, and cell viability was then determined by trypan blue exclusion.

[5] = 3T3 fibroblast viability, trypan blue exclusion; format: cell-based; details: human, 100 μM peptide, one hour, read-out: % Cell Viability
Description: as §1

[6] = system: Human mononuclear leukocytes; assay: 3H-thymidine uptake in WBC (proliferation); format: cell-based
Description: Human mononuclear leukocytes were isolated from whole blood in the following manner. Blood was collected in vacutainer tubes containing EDTA, and was then diluted with an equal valume of calcium and magnesium-free PBS and layered over Histopaque resin (GIBCO). The tubes were centrifuged for 30 minutes at 25° C. and 450× g. The plasma and platelets above the banded layer of cells in the resulting gradient were removed and discarded. The banded white blood cells were removed to fresh test tubes, washed 3 times with PBS, and resuspended in RPMI medium containing 10% fetal bovine serum (FBS), mercaptoethanol, and penicillin and streptomycin as antibiotics. The cells were then counted and resuspended to a final concentration of 3×10^6 cells/ml.
To each well of a 96 well flat-bottomed microtiter plate was aded 100 μl of cells (3×10^5 cells). Treatment groups were set in quadruplicate samples. The appropriate concentration of test peptide and/or the mitogen hytohemaglutinate (PHA), was added in a total volume of 100 μl of medium to the test wells. The plates were then incubated at 37° C. and 5% CO2 for a duration of 72 hours. At the end of the incubation period, 1 μCi of 3H-thymidine in 1 μl TRIS-HCI, PH8 was added to each well, and the plates incubated an additional 18 hours.
Cellular DNA was harvested onto glass fiber filters using a semi-automatic cell harvester. The glass filters were then placed into vials containing scintillation fluid, and the samples were counted in a scintillation counter. The uptake of 3H-thymidine is an indiator of cell proliferation, thus the higher the number of counts in the sample, the greater the proliferative activity of the cells. The results in Table XI indicate that low dose of the synthetic peptides of this invention stimulate cell growth.

[7] = system: EL-4 lymphoma cells; assay: EL-4 cell killing, trypan blue exclusion; details: one hour, 37° C.
[8] = system: E. coli; assay: Synergy of lytic peptide with antibiotics
[9] = system: S. auerus; assay: Synergy of lytic peptide with antibiotics
[10] = Role of cytoskeletal structure in susceptibility to lysis, FDD cell viability; details: donkey, primary fetal donkey dermal cells (FDD), % Viability of Treated DD Cells, 100 μM peptide 15 minutes
[11] = system: lymphocytes; format: cell-based, human
[12] = Lytic activity (general statement)
[13] = Manitou-1 0.01 μM + Streptomycin 0.5 μM
[14] = Manitou-1 0.01 μM + Streptomycin 5.0 μM
[15] = Manitou-1 0.01 μM + Tetracycline 0.5 μM
[16] = Manitou-1 0.01 μM + Tetracycline 5.0 μM
[17] = Manitou-1 0.01 μM, no antibiotic
[18] = Manitou-1 0.10 μM + Streptomycin 0.5 μM
[19] = Manitou-1 0.10 μM + Streptomycin 5.0 μM
[20] = Manitou-1 0.10 μM + Tetracycline 0.5 μM
[21] = Manitou-1 0.10 μM + Tetracycline 5.0 μM
[22] = Manitou-1 0.10 μM, no antibiotic
[23] = Manitou-1 1.0 μM + Streptomycin 0.5 μM
[24] = Manitou-1 1.0 μM + Streptomycin 5.0 μM
[25] = Manitou-1 1.0 μM + Tetracycline 0.5 μM
[26] = Manitou-1 1.0 μM + Tetracycline 5.0 μM
[27] = Manitou-1 1.0 μM, no antibiotic

With `CSCC[C@H](NC(=O)[C@H](CCCNC(=N)N)NC(=O)[C@H](CCCCN)NC(=O)[C@@H](N)CCSC)C(=O)N[C@H](C(=O)N[C@@H](CO)C(=O)N[C@@H](Cc1c[nH]c2ccccc12)C(=O)N[C@@H](CO)C(=O)N[C@@H](Cc1ccccc1)C(=O)N[C@@H](CCCCN)C(=O)N[C@@H](CCCCN)C(=O)N[C@@H](CC(C)C)C(=O)N[C@@H](CCCCN)C(=O)N[C@H](C(=O)N[C@@H](CCSC)C(=O)N[C@@H](CCCCN)C(=O)N[C@@H](CCCCN)C(=O)N[C@@H](CC(C)C)C(=O)N[C@@H](CC(C)C)C(=O)N[C@@H](CC(C)C)C(=O)N[C@@H](CC(C)C)C(=O)N[C@@H](CC(C)C)C(=O)N[C@@H](CC(C)C)C(=O)N[C@@H](CS)C(=O)N[C@H](C(=O)N[C@@H](Cc1ccccc1)C(=O)N[C@@H](CC(C)C)C(=O)N[C@H](C(=O)N[C@@H](CCCCN)C(=O)N[C@@H](CO)C(N)=O)C(C)C)C(C)C)[C@@H](C)O)C(C)C` [Manitou-1] (H-MKRMVSWSFKKLKTMKKLLLLLLCVFLVKS-NH2) the MBC ([1]; Table III) was 8 µM (≈ 28.9 µg/mL), the MBC ([2]; Table III, P. aeuriginosa (−)) was 16 µM (≈ 57.8 µg/mL) and the MBC ([3]; Table III, S. aureus (+)) was 32 µM (≈ 116 µg/mL). For the same molecule, the “% Cell Viability” value ([4]; B-16 Monolayer) was 19%, the “% Cell Viability” value ([4]; B-16 Suspension (trypsinized)) was 0% and the “selective killing of cancer cells in monolayer culture (in words)” value ([4]; B-16 versus 3T3 attached in monolayer) was “more effective than LSB-37 in selectively killing cancer cells”. The viability at 1 h, 100 μM ([5]; normal 3T3 human fibroblasts, 3T3 Suspension (trypsinized)) was 5%, the viability at 1 h, 100 μM ([5]; 3T3 Monolayer) was 85% and the “3H-Thymidine Uptake in WBC, % of Control” value ([6]; peptide 10 μM, PHA 0 mg) was 239%. For the same molecule, the “3H-Thymidine Uptake in WBC, % of Control” value ([6]; peptide 10 μM, PHA 0.5 mg) was 191%, the “3H-Thymidine Uptake in WBC, % of Control” value ([6]; peptide 10 μM, PHA 5.0 mg) was 125% and the “3H-Thymidine Uptake in WBC, % of Control” value ([6]; peptide 25 μM, PHA 0 mg) was 325%. The “3H-Thymidine Uptake in WBC, % of Control” value ([6]; peptide 25 μM, PHA 0.5 mg) was 153%, the “3H-Thymidine Uptake in WBC, % of Control” value ([6]; peptide 25 μM, PHA 5.0 mg) was 143% and the “3H-Thymidine Uptake in WBC, % of Control” value ([6]; peptide 50 μM, PHA 0 mg) was 62%. The “3H-Thymidine Uptake in WBC, % of Control” value ([6]; peptide 50 μM, PHA 0.5 mg) was 61%, the “3H-Thymidine Uptake in WBC, % of Control” value ([6]; peptide 50 μM, PHA 5.0 mg) was 63% and the “3H-Thymidine Uptake in WBC, % of Control” value ([6]; peptide 100 μM, PHA 0 mg) was 39%. For the same molecule, the “3H-Thymidine Uptake in WBC, % of Control” value ([6]; peptide 100 μM, PHA 0.5 mg) was 8%, the “3H-Thymidine Uptake in WBC, % of Control” value ([6]; peptide 100 μM, PHA 5.0 mg) was 0% and the “% EL-4 Cells Killed” value ([7]; 10 μM peptide) was 5%. For the same molecule, the “% EL-4 Cells Killed” value ([7]; 25 μM peptide) was 28%, the “% EL-4 Cells Killed” value ([7]; 50 μM peptide) was 78% and the “% EL-4 Cells Killed” value ([7]; 100 μM peptide) was 100%. The “% Cell Death In E. coli” value [8, 13] was 99.9%, the “% Cell Death In E. coli” value [8, 14] was 58% and the “% Cell Death In E. coli” value [8, 15] was 68%. For the same molecule, the “% Cell Death In E. coli” value [8, 16] was 88%, the “% Cell Death In E. coli” value [8, 17] was 0% and the “% Cell Death In E. coli” value [8, 18] was 68%. The “% Cell Death In E. coli” value [8, 19] was 99.9%, the “% Cell Death In E. coli” value [8, 20] was 0% and the “% Cell Death In E. coli” value [8, 21] was 58%. For the same molecule, the “% Cell Death In E. coli” value [8, 22] was 0%, the “% Cell Death In E. coli” value [8, 23] was 0% and the “% Cell Death In E. coli” value [8, 24] was 99.9%. For the same molecule, the “% Cell Death In E. coli” value [8, 25] was 0%, the “% Cell Death In E. coli” value [8, 26] was 47% and the “% Cell Death In E. coli” value [8, 27] was 0%. The “interaction with streptomycin in E. Coli (in words)” value ([8]; Manitou-1 with streptomycin) was “synergistic action”, the “% Cell Death In S. auerus” value [9, 13] was 0% and the “% Cell Death In S. auerus” value [9, 14] was 87%. The “% Cell Death In S. auerus” value [9, 15] was 0%, the “% Cell Death In S. auerus” value [9, 16] was 35% and the “% Cell Death In S. auerus” value [9, 17] was 0%. For the same molecule, the “% Cell Death In S. auerus” value [9, 18] was 0%, the “% Cell Death In S. auerus” value [9, 19] was 95% and the “% Cell Death In S. auerus” value [9, 20] was 0%. The “% Cell Death In S. auerus” value [9, 21] was 35%, the “% Cell Death In S. auerus” value [9, 22] was 0% and the “% Cell Death In S. auerus” value [9, 23] was 0%. The “% Cell Death In S. auerus” value [9, 24] was 86%, the “% Cell Death In S. auerus” value [9, 25] was 0% and the “% Cell Death In S. auerus” value [9, 26] was 35%. The “% Cell Death In S. auerus” value [9, 27] was 0%, the viability at 15 minutes, 100 μM ([10]; Cold-treated (4° C.)) was 8% and the viability at 15 minutes, 100 μM ([10]; Warm-treated (37° C.)) was 78%. For the same molecule, the viability at 15 minutes, 100 μM ([10]; with colchicine 0.1 μg/ml (cytoskeletal inhibitor), Colchicine-treated (0.1 μg/ml)) was 30% and the viability at 15 minutes, 100 μM ([10]; with cytochalasin D 5 μg/ml (cytoskeletal inhibitor), Cytochalasin D-treated (5 μg/ml)) was 23%.
In the case of `CC[C@H](C)[C@H](NC(=O)[C@H](CC(N)=O)NC(=O)[C@H](CCCNC(=N)N)NC(=O)CNC(=O)[C@H](CCSC)NC(=O)[C@H](CCCCN)NC(=O)[C@H](CCC(=O)O)NC(=O)[C@@H](NC(=O)[C@H](CCCCN)NC(=O)[C@H](CC(C)C)NC(=O)[C@H](Cc1ccccc1)NC(=O)[C@@H](NC(=O)[C@H](CCCCN)NC(=O)[C@H](CCC(=O)O)NC(=O)[C@H](CCCCN)NC(=O)[C@@H]1CCCN1C(=O)[C@@H](N)CCSC)C(C)C)[C@@H](C)CC)C(=O)N[C@@H](CCCNC(=N)N)C(=O)N[C@@H](CC(N)=O)C(N)=O` [Vishnu-3] (H-MPKEKVFLKIEKMGRNIRN-NH2), the “antibacterial result of treatment (Table I; MBC)” value (shortened to “antibacterial result of treatment”) [1] is reported as >64 µM, the “antibacterial result of treatment” value ([2]; P. aeruginosa (−)) is reported as >64 µM and the “antibacterial result of treatment” value ([3]; S. auerus (+)) is reported as >64 µM. The “stimulation of cell proliferation (in words)” value [11] was “potent stimulator of cell proliferation” and the “lytic activity (in words)” value [12] was “devoid of lytic activity”.
